# Experimental data published in patent US7435716B2, “Compounds pharmaceutical compositions and methods for treatment of bacteremia and/or septicemia” (Ramot At Tel Aviv University Ltd., priority 2001, dated 2008).
# Like-named read-outs stand apart in the source and are kept apart here.
# Tests used:
# [1] = tested on: Pseudomonas aeruginosa clinical isolates; experiment: Sensitizing activity for clinical isolates (MIC of antibiotic); assay type: cell-based; conditions: antibiotic alone
# Protocol: (§1) Experiments for the determining the sensitizing activity of the conjugates were performed similar to those described for PMBN in previous studies (Ofek et al 1994). All conjugates were teted at 20 μg/ml to determine the MIC of the indicated antibiotic. Antibiotics were purchased from Sigma (novobiocin, erythromycin and gentamycin), Bristol (Amikin), Galaxo (Zinacef), and B.R.L (augmentin). Numbers in brackets indicate number of is strains tested.
# [2] = tested on: Klebsiella pneumoniae clinical isolates; experiment: as above; assay type: cell-based; conditions: antibiotic alone
# Protocol: as §1
# [3] = tested on: erythromycin resistant Klebsiella pneumoniae; experiment: Mice protection assay; assay type: in vivo; conditions: for Mice survival (Dead/Total): intraperitoneally; for protection of mice, in words: with erythromycin
# Protocol: Sublethal dose of Klebsiella pneumoniae (2×10^5 cfu) were injected intreperitonially to mice. […] After additional 24 hours, the mice were treated once with half dose. Survival was followed daily for 7 days.
# Polymyxin octapeptide conjugated with the tripeptide formyl Met-Leu-Phe (fMLF, SEQ ID NO:1) was assayed in combination with erythromycin for the ability to provide protection against Klebsiella pneumoniae infection in an in vivo infection model previously described (Ofek et al., 1994).
# E. coli LPS = experiment: Displacement assay of dansyl-PMBN from LPS; assay type: binding; conditions: for ability to displace Dansyl-PMBN from LPS / affinity to LPS, in words: comparison with PMBN or polymyxin B; for IC50: inhibits 50% of initial fluorescence of 0.55 μM Dansyl-PMBN bound to E. coli-LPS, read-out: Peptides IC50
# Protocol: To determine the binding of a given peptide to LPS, a displacement assay was performed in which 5 or 10 μl (1×10^−5-1×10^−3 M) of the tested peptide at desired concentrations were added at 5 minutes interval to a pre-equilibrated mixture of LPS solution (2 mL, 3 μg/mL, ˜2×10^−7 M) in HEPES buffer (5 mM, pH 7.2) and dansyl-PMBN (0.55 μM). The fluorescence intensity (excitation wavelength of 340 nm and emission wavelength of 485 nm) was recorded after each time interval. Each experiment was repeated 2-3 times. The percent inhibition of fluorescence intensity was plotted as a function of the peptide concentration from which the concentration required for maximal (Imax) and 50% (IC50) displacement of the dansyl-PMBN from LPS was derived.
# Values were calculated as peptide's potency, at a concentration of 50 μg/ml, relatively to PMBN. IC50 values represent peptide concentrations that inhibits 50% of the initial fluorescence of 0.55 μM Dansyl-PMBN bound to E. coli-LPS.
# Gram-negative bacteria [4] = experiment: Antimicrobial activity of the peptide per se (MIC assay); assay type: cell-based; conditions: peptide alone
# Protocol: (§2) Gram-negative bacteria were grown on nutrient agar plates (Difco Laboratories, Detroit, Mich.) and kept at 4° C. An overnight culture in isotonic sensitest broth (ISB, Oxoid) was adjusted to 1×10^5 CFU/mL and inoculated into microtiter plate wells containing each 100 μL of a serial twofold dilution (1000-0.5 μg/mL) of the tested antibiotics in ISB. MIC was defined as the lowest concentration at which there was no visible bacterial growth after incubation for 20 hours at 37° C. The results are reported for 4-8 separate tests that varied by no more than one dilution.
# [5] = tested on: phagocytosis of E. coli by human monocytes-derived macrophages; experiment: Phagocytosis activity assay; assay type: cell-based
# Protocol: (§3) The conjugates and the control peptides were incubated with E. coli (10^6 CFU/mL) prior to the contact with human monocytes-derived macrophages monolayer. After 30 minutes of phagocyte-bacteria encounter, the phagocytes were washed, lysed and the released bacteria allowed to grow for 4.5 hours at 37° C. The amount of trapped bacteria were calculated as a function of absorbency at 600 nm.
# as §3, with “nm. fMLF by itself (10 μM) enhanced by 2.5 fold the phagocytosis comparing to the control (FIG. 2). […] Tuftsin-PMBN enhanced the phagocytosis by 3 folds comparing to the control.” for “nm.”
# Klebsiella pneumonia [6] = experiment: Minimal inhibitory concentration (MIC) assay; assay type: cell-based; conditions: compared with PMBN
# Protocol: as §2
# E. coli = experiment: Minimal inhibitory concentration (MIC) assay; assay type: cell-based; conditions: compared with PMBN
# Protocol: as §2
# Klebsiella pneumonia [7] = experiment: Sensitization assay (fold decrease in MIC of novobiocin); assay type: cell-based; conditions: sensitization towards novobiocin, peptide 50 μg/ml, relative to PMBN
# Protocol: (§4) Bacterial suspension (10 μL, 1×10^5 CFU) was inoculated into microtiter plate wells containing 100 μL of a serial two-fold dilution (1000-0.5 μg/mL) of novobiocin (Sigma) in ISB. To each well, 10 μL of the test peptide was added to a final concentration of 50 μg/mL. The fold decrease in MIC for novobiocin comparing wells with and without test peptides was calculated and designated as sensitizing activity. The relative sensitizing activity of the test peptide was calculated as percent of the sensitizing activity of 50 μg/mL pPMBN.
# Escherichia coli = experiment: as above; assay type: cell-based; conditions: sensitization towards novobiocin, peptide 50 μg/ml, relative to PMBN
# Protocol: as §4
# [8] = cited from earlier work
# [9] = cited from earlier work; remark: listed apart in the source
# [10] = tested on: clinical isolates of gram-negative bacteria; conditions: previous studies (Ofek et al, 1994); cited from earlier work
# [11] = Lam et al., 1986; cited from earlier work
# Gram-negative bacteria [12] = experiment: Sensitization assay, bacterium not specified at the place; assay type: cell-based; conditions: comparison with PMBN
# Protocol: as §4
compound,measurement,setting,value
CC[C@H]1OC(=O)[C@H](C)[C@@H](O[C@H]2C[C@@](C)(OC)[C@@H](O)[C@H](C)O2)[C@H](C)[C@@H](O[C@@H]2O[C@H](C)C[C@H](N(C)C)[C@H]2O)[C@](C)(O)C[C@@H](C)C(=O)[C@H](C)[C@@H](O)[C@]1(C)O [Erythromycin],Range of MIC,[1],200 µg/mL
same,Range of MIC,[2],100 to 200 µg/mL
same,Mice survival (Dead/Total),[3]; erythromycin 10 mg/Kg alone,18/18
same,"protection of mice, in words",[3],all 18 mice who received erythromycin only died
CO[C@@H]1[C@@H](OC(N)=O)[C@@H](O)[C@H](Oc2ccc3c(O)c(NC(=O)c4ccc(O)c(CC=C(C)C)c4)c(=O)oc3c2C)OC1(C)C [Novobiocin],Range of MIC,[1],62 to 1000 µg/mL
Formyl-Met-Leu-Phe-Thr-Dab-cyclo[Dab-Dab-dPhe-Leu-Dab-Dab-Thr] [fMLF-PMBN],"ability to displace Dansyl-PMBN from LPS / affinity to LPS, in words",E. coli LPS,even lower than PMBN
same,IC50,E. coli LPS,12000 nM
same,antimicrobial activity per se,Gram-negative bacteria [4],did not have antimicrobial activity by it self
same,antimicrobial activity per se,Gram-negative bacteria [4]; listed as PMBN-fMLF,no antimicrobial activity per se
same,"enhancement of phagocytosis, in words",[5]; 1 μM,enhanced the phagocytosis of the bacteria
same,effect of the added peptide on MIC of PMBN towards Klebsiella pneumonia,Klebsiella pneumonia [6],did not significantly reduce
same,effect of the added peptide on MIC of PMBN towards E. coli,E. coli,did not significantly reduce
same,"protection of mice, in words",[3],Almost complete protection
same,peptides potency (%) Klebsiella pneumonia,Klebsiella pneumonia [7],475%
same,peptides potency (%) Escherichia coli,Escherichia coli,783%
Gentamycin,Range of MIC,[1],1000 µg/mL
Polymyxin B,IC50,E. coli LPS,500 nM
same,"neuromuscular blockade, neurotoxic or nephrotoxic effects","[8]; rats, 3 mg/Kg body weight intravenously over a long period",all of which were observed
same,"neuromuscular blockade, neurotoxic or nephrotoxic effects","[9]; dogs, 3 mg/Kg body weight intravenously over a long period",all of which were observed
same,Mice survival (Dead/Total),"[3]; 1.5 + 1.5 + 1.5 mg/Kg, no erythromycin",3/18
Thr-Dab-cyclo[Dab-Dab-dPhe-Leu-Dab-Dab-Thr] [PMBN],IC50,E. coli LPS,4500 nM
same,"neuromuscular blockade, neurotoxic or nephrotoxic effects","[8]; rat, in vivo, iv, 3 mg/kg",did not cause neuromuscular blockade and neurotoxic or nephrotoxic effects
same,"neuromuscular blockade, neurotoxic or nephrotoxic effects","[9]; dog, in vivo, iv, 3 mg/kg",did not cause neuromuscular blockade and neurotoxic or nephrotoxic effects
same,clinical isolates rendered more susceptible to novobiocin,[10],53 out of 53
same,"protection of mice, in words",[3],partial protection
same,peptides potency (%) Klebsiella pneumonia,Klebsiella pneumonia [7],100%
same,peptides potency (%) Escherichia coli,Escherichia coli,100%
same,dose that was not lethal (doses as high as),[11],200 mg/Kg body weight
Thr-Lys-Pro-Arg-Thr-Dab-cyclo[Dab-Dab-dPhe-Leu-Dab-Dab-Thr] [Tuftsin-PMBN],"ability to displace Dansyl-PMBN from LPS / affinity to LPS, in words",E. coli LPS,much higher potency then PMBN
same,IC50,E. coli LPS,700 nM
same,antimicrobial activity per se,Gram-negative bacteria [4],did not have antimicrobial activity by it self
same,antimicrobial activity per se,Gram-negative bacteria [4]; listed as PMBN-tuftsin,no antimicrobial activity per se
same,enhancement of phagocytosis comparing to the control,[5]; concentration not given,3 folds
same,effect of the added peptide on MIC of PMBN towards Klebsiella pneumonia,Klebsiella pneumonia [6],did not significantly reduce
same,effect of the added peptide on MIC of PMBN towards E. coli,E. coli,did not significantly reduce
same,"sensitizing activity, in words",Gram-negative bacteria [12],increased ability to enhance the permeability of the bacterial outer membrane to novobiocin
same,peptides potency (%) Klebsiella pneumonia,Klebsiella pneumonia [7],268%
same,peptides potency (%) Escherichia coli,Escherichia coli,863%
"formyl-Met-Leu-Phe [fMLF, reference compound]",enhancement of phagocytosis comparing to the control,[5]; 10 μM,2.5 fold
